Source: patent publication US20110178070A1, “PI3K/mTOR INHIBITORS” (TAKEDA PHARMACEUTICAL COMPANY LIMITED, priority 2008, published 2011)
Read-outs that look alike come from different tables or passages of the source.

Columns and labels:
[1] = biological target: T1, PI3Kalpha (PIK3CA/PIK3R1, p110 alpha/p85 alpha) (Homo sapiens, UniProt P42336); test: Adapta universal kinase assay, inhibition of PI3Kalpha (Example B); type: biochemical
T1 construct: recombinant human, full length, N-terminal His-tagged phosphoinositide-3-kinase catalytic subunit alpha polypeptide; His (N); purchased Invitrogen Corp. PV4788; host or cells: insect cells
Description: In contrast to ATP depletion assays, the Adapta™ assay is extremely sensitive to ADP formation such that a majority of the signal change occurs in the first 10-20% conversion of ATP to ADP. This makes the Adapta™ universal kinase assay ideally suited for use with low activity kinases.
The principle of the Adapta™ universal kinase assay is outlined below. The assay itself can be divided into two phases: a kinase reaction phase, and an ADP detection phase. In the kinase reaction phase, all components required for the kinase reaction are added to the well, and the reaction is allowed to incubate for 60 minutes. After the reaction, a detection solution consisting of a europium labeled anti-ADP antibody, an Alexa Fluor® 647 labeled ADP tracer, and EDTA (to stop the kinase reaction) is added to the assay well. ADP formed by the kinase reaction (in the absence of an inhibitor) will displace the Alexa Fluor® 647 labeled ADP tracer from the antibody, resulting in a decrease in the TR-FRET signal.
ADP formation is determined by calculating the emission ratio from the assay well. The emission ratio is calculated by dividing the intensity of the tracer (acceptor) emission by the intensity of the Eu (donor) emission at 615 nm as shown in the equation below.
Since the Adapta™ technology measures ADP formation (i.e. conversion of ATP to ADP) it can be used to measure any type of ATP hydrolysis, including intrinsic ATPase activity of kinases. In this case, the substrate is water, not a lipid or peptide (Kashem, et al., 2007, J. Biomol. Screen. 12, 1, 70-83).
The combination of recombinant human, full length, N-terminal His-tagged phosphoinositide-3-kinase catalytic subunit alpha polypeptide ([…], PI3Kalpha), expressed in and purified from insect cells along with co-expressed recombinant, full length, untagged phosphoinositide-3-kinase regulatory subunit 1 (p85 alpha) (combination also known as PIK3CA/PIK3R1; Invitrogen Corp. Cat # PV4788) was used as the enzyme for this assay.
The test compounds are screened at 1% DMSO (final) in the well. […] The PIP2:PS Substrate/Kinase Mixture was diluted 2× to working concentration in Kinase Buffer containing 50 mM HEPES pH 7.5, 0.1% CHAPS, and 1 mM EGTA. […] The Detection Mix was prepared in TR-FRET Dilution Buffer.
After the 1 hour Kinase Reaction incubation at room temperature, 5 μL of Detection Mix was added, followed by another 30 sec plate shake to ensure mixing, and the Detection Mix was allowed to equilibrate for 1 hour at room temperature.
Lipid substrates are prepared by creating lipid vesicles. In some cases, these vesicles include a carrier lipid, such as phosphatidylserine (PS). In the assay conditions section above, “PIP2:PS” refers to large unilamellar vesicles (LUVs) containing five mole percent L-α-Phosphatidylinositol-4,5-bisphosphate (PIP2) and ninety-five percent phosphatidylserine (PS), and the concentration listed refers only to the PIP2 substrate, not the PS carrier lipid.

mTOR = mTOR (Homo sapiens, UniProt P42345); test: Z-Lyte biochemical assay, inhibition of mTOR (Example A);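 further: synthetic Ser/Thr peptide with coumarin–fluorescein FRET pair, phosphorylation protects from protease cleavage, coumarin/fluorescein emission ratio after 400 nm excitation, 1 h kinase reaction, 10-point 3-fold titrations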
Description: The inhibitory property of a compound relative to mTOR catalysis was determined by using the Z-Lyte™ biochemical assay conducted by Invitrogen Corporation (Madison, Wis.), which employs a fluorescence-based, coupled-enzyme format and is based on the differential sensitivity of phosphorylated and non-phosphorylated peptides to proteolytic cleavage. The peptide substrate is labeled with two fluorophores—one at each end—that make up a FRET pair.
In the primary reaction, the kinase transfers the gamma-phosphate of ATP to a single tyrosine, serine or threonine residue in a synthetic FRET-peptide. In the secondary reaction, a site-specific protease recognizes and cleaves non-phosphorylated FRET-peptides. Phosphorylation of FRET-peptides suppresses cleavage by the Development Reagent. Cleavage disrupts FRET between the donor (i.e., coumarin) and acceptor (i.e., fluorescein) fluorophores on the FRET-peptide, whereas uncleaved, phosphorylated FRET-peptides maintain FRET. A ratio metric method, which calculates the ratio (the Emission Ratio) of donor emission to acceptor emission after excitation of the donor fluorophore at 400 nm, is used to quantitate reaction progress, as shown in the equation below.
A significant benefit of this ratio metric method for quantitating reaction progress is the elimination of well-to-well variations in FRET-peptide concentration and signal intensities. […] Both cleaved and uncleaved FRET-peptides contribute to the fluorescence signals and therefore to the Emission Ratio. The extent of phosphorylation of the FRET-peptide can be calculated from the Emission Ratio.
Recombinant human mTOR enzyme (amino acids 1360-2549), GST-tagged, expressed in and purified from insect cells (Invitrogen Corp. Cat. #PV4753; also known as FRAP1) was used for the assay. The 2×FRAP1 (mTOR)/Ser/Thr 11 Peptide Mixture (Invitrogen Corp.) was prepared in buffer containing 50 mM HEPES pH 7.5, 0.01% BRIJ-35, 10 mM MnCl2, 1 mM EGTA, 2 mM DTT, and 0.02% NaN3. The final 10 μL Kinase Reaction consisted of 7.2-58.1 ng FRAP1 (mTOR) and 2 μM Ser/Thr 11 Peptide in buffer containing 50 mM HEPES pH 7.5, 0.01% BRIJ-35, 5 mM MgCl2, 5 mM MnCl2, 1 mM EGTA, 1 mM DTT, and 0.01% NaN3.
Test compounds are screened in 1% DMSO (final) in the well. For 10 point titrations, 3-fold serial dilutions are conducted from the starting concentration. The Ser/Thr 11 Peptide/Kinase Mixture was diluted to a 2× working concentration in buffer containing 50 mM HEPES pH 7.5, 0.01% BRIJ-35, 10 mM MnCl2, 1 mM EGTA, 2 mM DTT, and 0.02% NaN3. The ATP solution was diluted to a 4× working concentration in buffer containing 50 mM HEPES pH 7.5, 0.01% BRIJ-35, 10 mM MgCl2, and 1 mM EGTA.
After the 1 hour Kinase Reaction incubation, 5 μL of a 1:16 dilution of Development Reagent B was added, and the development reaction was allowed to proceed for an additional 1 hour at room temperature. The assay plate was then read on a fluorescence plate reader and the data analyzed as outlined above.
IC50 values were calculated by non-linear least squares curve fitting using XLfit from IDBS to fit the results to model number 205 (sigmoidal dose-response model).

[2] = Table 1, 25 μM ATP, read-out: IC50 (nM) PI3Kα
[3] = IC50 (nM) mTOR, Table 1, 10 μM ATP

mTOR, sequence (P42345 1360-2549): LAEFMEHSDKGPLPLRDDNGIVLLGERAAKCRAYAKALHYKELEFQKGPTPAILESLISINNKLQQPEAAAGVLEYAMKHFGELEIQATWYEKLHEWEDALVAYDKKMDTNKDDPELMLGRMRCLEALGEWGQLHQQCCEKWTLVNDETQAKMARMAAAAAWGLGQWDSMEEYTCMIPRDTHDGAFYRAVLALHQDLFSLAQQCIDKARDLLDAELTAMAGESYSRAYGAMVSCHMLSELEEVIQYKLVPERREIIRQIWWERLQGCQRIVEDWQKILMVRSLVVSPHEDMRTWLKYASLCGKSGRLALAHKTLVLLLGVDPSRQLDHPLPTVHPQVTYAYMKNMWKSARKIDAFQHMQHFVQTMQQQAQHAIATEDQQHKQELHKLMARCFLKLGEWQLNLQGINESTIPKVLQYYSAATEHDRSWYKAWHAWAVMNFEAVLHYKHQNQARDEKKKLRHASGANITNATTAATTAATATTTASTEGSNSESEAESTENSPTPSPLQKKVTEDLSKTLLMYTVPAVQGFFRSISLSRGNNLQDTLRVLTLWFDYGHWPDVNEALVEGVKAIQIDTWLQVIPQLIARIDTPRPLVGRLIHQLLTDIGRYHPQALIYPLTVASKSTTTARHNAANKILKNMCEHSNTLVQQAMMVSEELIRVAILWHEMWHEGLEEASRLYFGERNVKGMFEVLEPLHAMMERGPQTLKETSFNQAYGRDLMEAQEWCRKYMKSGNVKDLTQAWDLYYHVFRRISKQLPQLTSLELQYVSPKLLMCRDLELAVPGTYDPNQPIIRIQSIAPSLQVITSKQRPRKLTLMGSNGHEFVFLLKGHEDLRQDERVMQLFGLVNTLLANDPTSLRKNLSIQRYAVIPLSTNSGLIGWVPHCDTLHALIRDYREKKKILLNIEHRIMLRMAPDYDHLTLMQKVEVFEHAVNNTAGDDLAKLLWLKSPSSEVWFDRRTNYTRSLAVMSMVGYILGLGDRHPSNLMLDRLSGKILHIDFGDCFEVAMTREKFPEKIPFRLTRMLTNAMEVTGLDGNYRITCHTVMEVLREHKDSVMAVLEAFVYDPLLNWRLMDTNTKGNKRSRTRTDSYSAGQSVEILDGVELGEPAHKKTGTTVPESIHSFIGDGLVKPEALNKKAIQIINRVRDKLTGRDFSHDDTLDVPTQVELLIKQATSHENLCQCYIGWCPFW
T1 sequence (P42336 whole entry): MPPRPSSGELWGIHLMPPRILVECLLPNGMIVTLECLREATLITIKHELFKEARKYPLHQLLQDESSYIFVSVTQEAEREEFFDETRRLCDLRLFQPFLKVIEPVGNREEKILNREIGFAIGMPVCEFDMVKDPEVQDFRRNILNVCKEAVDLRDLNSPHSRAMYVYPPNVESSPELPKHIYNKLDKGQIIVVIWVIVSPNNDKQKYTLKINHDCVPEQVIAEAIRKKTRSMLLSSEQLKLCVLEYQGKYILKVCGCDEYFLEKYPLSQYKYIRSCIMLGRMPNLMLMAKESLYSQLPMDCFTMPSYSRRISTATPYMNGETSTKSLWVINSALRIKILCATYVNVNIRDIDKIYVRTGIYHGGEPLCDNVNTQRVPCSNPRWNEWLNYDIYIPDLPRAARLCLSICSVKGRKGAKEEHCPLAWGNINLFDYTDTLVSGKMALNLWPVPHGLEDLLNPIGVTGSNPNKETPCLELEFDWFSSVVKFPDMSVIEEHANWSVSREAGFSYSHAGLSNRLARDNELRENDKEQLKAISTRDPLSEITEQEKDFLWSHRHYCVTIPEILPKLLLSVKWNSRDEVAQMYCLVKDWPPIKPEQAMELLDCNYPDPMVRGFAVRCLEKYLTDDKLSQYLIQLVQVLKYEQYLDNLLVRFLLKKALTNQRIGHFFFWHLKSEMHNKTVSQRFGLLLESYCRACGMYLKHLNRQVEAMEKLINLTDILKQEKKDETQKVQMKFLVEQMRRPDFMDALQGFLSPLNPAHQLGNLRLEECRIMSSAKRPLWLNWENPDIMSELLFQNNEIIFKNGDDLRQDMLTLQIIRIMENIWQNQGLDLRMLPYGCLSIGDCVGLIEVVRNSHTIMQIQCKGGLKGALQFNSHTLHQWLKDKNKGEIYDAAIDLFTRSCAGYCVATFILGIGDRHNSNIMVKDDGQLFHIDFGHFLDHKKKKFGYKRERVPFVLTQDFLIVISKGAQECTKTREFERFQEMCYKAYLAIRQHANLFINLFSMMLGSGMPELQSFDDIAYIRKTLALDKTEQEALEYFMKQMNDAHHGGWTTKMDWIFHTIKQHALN
T1 sequence (P27986 whole entry partner): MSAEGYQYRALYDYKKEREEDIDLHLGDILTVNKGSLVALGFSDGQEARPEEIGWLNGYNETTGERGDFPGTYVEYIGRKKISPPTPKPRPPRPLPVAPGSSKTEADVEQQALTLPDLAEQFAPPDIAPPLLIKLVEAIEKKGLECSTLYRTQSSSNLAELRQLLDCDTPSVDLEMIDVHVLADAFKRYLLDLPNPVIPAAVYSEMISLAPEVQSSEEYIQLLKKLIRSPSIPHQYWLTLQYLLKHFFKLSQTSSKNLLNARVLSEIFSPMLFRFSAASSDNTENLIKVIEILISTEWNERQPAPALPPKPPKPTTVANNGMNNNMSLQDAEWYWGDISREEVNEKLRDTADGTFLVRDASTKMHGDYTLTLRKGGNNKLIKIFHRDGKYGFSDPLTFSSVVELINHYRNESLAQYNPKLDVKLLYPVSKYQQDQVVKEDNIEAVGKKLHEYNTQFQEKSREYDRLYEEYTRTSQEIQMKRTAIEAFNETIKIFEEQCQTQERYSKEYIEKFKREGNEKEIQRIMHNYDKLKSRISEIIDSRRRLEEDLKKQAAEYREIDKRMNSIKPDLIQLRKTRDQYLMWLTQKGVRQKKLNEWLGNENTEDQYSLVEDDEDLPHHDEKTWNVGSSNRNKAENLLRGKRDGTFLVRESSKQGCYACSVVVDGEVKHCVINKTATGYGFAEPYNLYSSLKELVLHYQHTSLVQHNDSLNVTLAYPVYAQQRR

Structure (SMILES) | IC50 [1, 2] [nM] | IC50 ([1]; exact value in text, read-out: IC50 value for PI3K) [nM] | IC50 (mTOR; [3]) [nM] | IC50 (mTOR; IC50 value for mTOR, exact value in text) [nM]
CC(=O)Nc1nc2ccc(-c3ccc(NS(C)(=O)=O)cc3)nc2s1 [Example 29, N-(5-(4-(Methylsulfonamido)phenyl)thiazolo[5,4-b]pyridin-2-yl)acetamide] | 100 to 1000 | 310 | 100 to 1000 | 790
CC(=O)Nc1nc2ccc(-c3cc(NS(C)(=O)=O)c4[nH]ccc4c3)cc2s1 [Example 32, N-(6-(7-(Methylsulfonamido)-1H-indol-5-yl)benzo[d]thiazol-2-yl)acetamide] | > 1000 | – | > 1000 | –
CC(=O)Nc1nc2ccc(-c3ccc4[nH]cc(C#N)c4c3)cc2s1 [Example 16, N-(6-(3-Cyano-1H-indol-5-yl)benzo[d]thiazol-2-yl)acetamide] | > 1000 | – | 100 to 1000 | –
CC(=O)Nc1nc2ccc(-c3cccc4[nH]ccc34)cc2s1 [Example 14, N-(6-(1H-Indol-4-yl)benzo[d]thiazol-2-yl)acetamide] | > 1000 | – | > 1000 | –
CC(=O)Nc1nc2ccc(-c3ccc4c(c3)NC(=O)CNC4=O)cc2s1 [Example 21, N-(6-(2,5-Dioxo-2,3,4,5-tetrahydro-1H-benzo[e][1,4]diazepin-8-yl)benzo[d]thiazol-2-yl)acetamide] | > 1000 | – | > 1000 | –
CC(=O)Nc1nc2ccc(-c3ccc(S(C)(=O)=O)cc3)nc2s1 [Example 26, N-(5-(4-(Methylsulfonyl)phenyl)thiazolo[5,4-b]pyridine-2-yl)acetamide] | > 1000 | – | > 1000 | –
CC(=O)Nc1cccc(-c2ccc3nc(NC(C)=O)sc3c2)c1 [Example 41, N-(3-(2-Acetamidobenzo[d]thiazol-6-yl)phenyl)acetamide] | > 1000 | – | > 1000 | –
CC(=O)Nc1nc2ccc(-c3ccc(N)cc3C(F)(F)F)cc2s1 [Example 19, N-(6-(4-Amino-2-(trifluoromethyl)phenyl)benzo[d]thiazol-2-yl)acetamide] | – | – | > 1000 | –
CC(=O)Nc1nc2ccc(-c3ccc(C(C)(C)C#N)cc3)nc2s1 [Example 5, N-(5-(4-(2-Cyanopropan-2-yl)phenyl)thiazolo[5,4-b]pyridin-2-yl)acetamide] | > 1000 | – | > 1000 | –
CNC(=O)c1cccc(-c2ccc3nc(NC(C)=O)sc3c2)c1 [Example 40, 3-(2-Acetamidobenzo[d]thiazol-6-yl)-N-methylbenzamide] | – | – | > 1000 | –
CNC(=O)c1ccc(-c2ccc3nc(NC(C)=O)sc3n2)cn1 [Example 6, 5-(2-Acetamidothiazolo[5,4-b]pyridin-5-yl)-N-methylpicolinamide] | – | – | 100 to 1000 | –
CC(=O)Nc1nc2ccc(-c3cnc(Cl)c(NS(=O)(=O)C4CC4)c3)nc2s1 [Example 49, N-(5-(6-Chloro-5-(cyclopropanesulfonamido)pyridin-3-yl)thiazolo[5,4-b]pyridin-2-yl)acetamide] | – | – | > 1000 | –
CC(=O)Nc1nc2ccc(-c3ccc4c(c3)CC(=O)N4)nc2s1 [Example 31, N-(5-(2-oxoindolin-5-yl)thiazolo[5,4-b]pyridin-2-yl)acetamide] | – | – | 100 to 1000 | –
CC(=O)Nc1nc2ccc(-c3ccccc3)cc2s1 [Example 10, N-(6-Phenylbenzo[d]thiazol-2-yl)acetamide] | – | – | > 1000 | –
CC(=O)Nc1nc2ccc(-c3ccc(C(N)=O)cc3)nc2s1 [Example 38, 4-(2-Acetamidothiazolo[5,4-b]pyridin-5-yl)benzamide] | – | – | < 100 | –
CS(=O)(=O)Nc1cc(-c2ccc3nc(NC(=O)C4CC4)sc3n2)cnc1Cl [Example 9, N-(5-(6-Chloro-5-(methylsulfonamido)pyridin-3-yl)thiazolo[5,4-b]pyridin-2-yl)cyclopropanecarboxamide] | – | – | < 100 | –
CC(=O)Nc1nc2ccc(-c3cccnc3)cc2s1 [Example 11, N-(6-(Pyridin-3-yl)benzo[d]thiazol-2-yl)acetamide] | – | – | 100 to 1000 | –
CC(=O)Nc1nc2ccc(-c3cnc(Cl)c(NS(=O)(=O)c4ccccc4)c3)cc2s1 [Example 18, N-(6-(6-Chloro-5-(phenylsulfonamido)pyridin-3-yl)benzo[d]thiazol-2-yl)acetamide] | – | – | < 100 | –
CC(=O)Nc1ccc(-c2ccc3nc(NC(C)=O)sc3c2)cc1 [Example 39, N-(4-(2-Acetamidobenzo[d]thiazol-6-yl)phenyl)acetamide] | – | – | 100 to 1000 | –
CNS(=O)(=O)c1ccc(-c2ccc3nc(NC(C)=O)sc3n2)cc1 [Example 28, N-(5-(4-(N-Methylsulfamoyl)phenyl)thiazolo[5,4-b]pyridine-2-yl)acetamide] | > 1000 | – | > 1000 | –
CC(=O)Nc1nc2ccc(-c3cnc4cc[nH]c4c3)nc2s1 [Example 25, N-(5-(1H-Pyrrolo[3,2-b]pyridin-6-yl)thiazolo[5,4-b]pyridin-2-yl)acetamide] | – | – | < 100 | –
CC(=O)Nc1nc2ccc(-c3ccc(-c4nnc[nH]4)cc3)nc2s1 [Example 42, N-(5-(4-(4H-1,2,4-Triazol-3-yl)phenyl)thiazolo[5,4-b]pyridin-2-yl)acetamide] | – | – | < 100 | –
CC(=O)Nc1nc2ccc(-c3ccc4[nH]ccc4c3)cc2s1 [Example 12, N-(6-(1H-Indol-5-yl)benzo[d]thiazol-2-yl)acetamide] | – | – | > 1000 | –
CC(=O)Nc1nc2ccc(-c3cnc(Cl)c(NS(=O)(=O)c4ccccc4)c3)nc2s1 [Example 7, N-(5-(6-Chloro-5-(phenylsulfonamido)pyridin-3-yl)thiazolo[5,4-b]pyridin-2-yl)acetamide] | – | – | < 100 | –
